Results published in US9079891B2, “Compounds that modulate intracellular calcium” (CALCIMEDICA, INC., priority 2010, dated 2015).
Where two headings read alike, the source gives them in different places.

Key:
[1] = biological target: T1, recombinant human STIM1 and Orai1 (Homo sapiens, UniProt Q96D31); experiment: Fluorescence-based assay of store-operated calcium entry in Orai1/STIM1 stable cells (FLIPR); assay type: cell-based; details: HEK-293 cells stably expressing human Orai1/STIM1; Fluo-4; Peak-Basal signal; read-out: FLIPR_CRAC: 9 point CRC: O1S1_JR251: IC50: Peak_over_Basal
T1 construct: c-myc (C); expressed in transfected cells; host or cells: HEK-293 cells stably expressing human STIM1 and human Orai1
T1 sequence (Q96D31 whole entry): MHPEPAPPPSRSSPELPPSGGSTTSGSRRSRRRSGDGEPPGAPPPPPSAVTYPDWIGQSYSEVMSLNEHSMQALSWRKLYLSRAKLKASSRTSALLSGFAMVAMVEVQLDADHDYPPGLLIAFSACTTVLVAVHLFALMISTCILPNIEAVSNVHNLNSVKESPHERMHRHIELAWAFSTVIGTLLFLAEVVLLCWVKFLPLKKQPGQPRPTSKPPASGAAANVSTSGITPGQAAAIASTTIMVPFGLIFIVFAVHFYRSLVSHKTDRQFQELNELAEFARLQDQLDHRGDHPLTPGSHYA
Experimental: A. Fluorescence-Based Assay of Store-Operated Calcium Entry in Orai1/Stim1 Stable Cells.
Cells stably expressing recombinant human STIM1 and Orai1 are generated by transfecting a human Orai1 expression plasmid (pcDNA3.1-Orai1-cmyc) into HEK-293 cells stably overexpressing human STIM1 (Roos et al. 2005 JCB 169(3): 435-445). Colonies of cells stably expressing both STIM1 and Orai1 proteins are selected and then subcloned by limiting dilution. Cells were cultured at 37° C./6% CO2 in complete medium with 10% FBS and appropriate selection markers.
The day prior to performing the assay Orai1/STIM1 stable cells are plated in 50 μL of complete medium at 90-95% confluence in a 384 well plate. Cells are grown at 37° C./6% CO2 overnight. On the day of the assay, 1.5 μM fluo-4-AM (Invitrogen) in complete medium is added to the cells, which are then incubated for 1 hour at RT. Cells are washed once in Ca^2+-free HBSS (Hank's buffered saline solution) and 35 μl of Ca^2+-free HBSS is added to each well. Test compounds are added to wells in a 10 μL Ca^2+-free HBSS solution, prepared at 4.5× the desired final concentration, and incubated for 30 minutes at RT. The initial baseline fluorescence signal is then measured with a FLIPR^384 (Molecular Devices) plate reader. Calcium entry is initiated by adding 5 μl of 10×CaCl2 (10 mM) in HBSS, and changes in cellular fluorescence are measured with the FLIPR^384 plate reader. In each well, the magnitude of the fluorescence signal as a result of calcium entry into the cell is determined by calculating the difference between the peak fluorescence signal measured after calcium addition and the initial baseline fluorescence signal (designated Peak-Basal). IC50 values are typically calculated as the concentration that inhibited 50% of the Peak-Basal signal.

[2] = test system: secreted IL-2 in Jurkat T cells; experiment: In vitro assay of cytokine (IL-2) release from T cells; assay type: cell-based; details: Homo sapiens; Jurkat E6-1 cells; PHA/TPA stimulation 20 hours; IL-2 ELISA
Experimental: In Vitro Assay of Cytokine Release from T Cells
Jurkat E6-1 cells are obtained from ATCC and maintained in complete medium with 10% FBS at 37° C./6% CO2.
The day prior to performing the assay, Jurkat T cells are plated in 90 μL of HBSS Buffer with 1.8 mM CaCl2 and 1.75% fetal bovine serum (FBS) in a 96 well plate at a density of 1.5×10^5 cells/well for 3 hours. 10 μl of 10× test compound prepared in HBSS is added and incubated for 10 minutes at 37° C./6% CO2. Cells are stimulated by the addition of 10 μl of 11×PHA/TPA (27.5 μg/mL PHA/880 nM TPA) and incubated at 37° C./6% CO2 for 20 hours. On the following day, the supernatants are collected and assayed for IL-2 levels by ELISA according to the manufacturer's protocols. The IC50 value is calculated as the concentration at which 50% of secreted IL-2 in vehicle treated cells is inhibited.

RBL-2H3 cells = experiment: Fluorescence-based assay of store-operated calcium entry in RBL-2H3 cells (FLIPR, thapsigargin); assay type: cell-based, rat; details: Fluo-4, Upslope 0-7 sec, read-out: FLIPR_CRAC: 9 pt CRC - Fluo4_TG-D: RBL-2H3: IC50: Upslope 0-7 sec
Experimental: B. Fluorescence-Based Assay of Store-Operated Calcium Entry in RBL-2H3 Cells.
RBL-2H3 cells are obtained from ATCC and maintained in complete medium with 10% FBS at 37° C./6% CO2.
The day prior to performing the assay, RBL-2H3 cells are plated in 50 μl of complete medium in a 384 well plate. Cells are grown at 37° C./6% CO2 overnight and grow to 50-60% confluence by the next day. On the assay day, 1.5 μM Fluo-4-AM dye (Invitrogen) in complete medium is added and incubated for 1 hour at RT. Cells are washed twice in Ca^2+-free HBSS buffer and 35 μl Ca^2+-free HBSS buffer is added to each well. 10 μl of a test compound prepared in a Ca^2+-free HBSS solution at 4.5× of the desired concentration is added to a well and incubated for 5 minutes at RT. 10 μl of thapsigargin prepared in a Ca^2+-free HBSS solution at 5.5× of the desired concentration (5.5 uM) is added to each well and incubated for an additional 25 minutes. The initial baseline fluorescence signal is measured with a FLIPR^384 (Molecular Devices) plate reader. 5 μl of 12× calcium in HBSS (12 mM) is added and changes in cellular fluorescence are measured with the FLIPR^384 plate reader. In each well, the change in the fluorescent signal as a function of time due to calcium entry into the cell is determined by calculating the difference between the fluorescent signal measured 7 seconds after calcium addition and the initial baseline fluorescence signal at time zero (t=0). This parameter is designated Upslope. The IC50 value is calculated as the concentration at which 50% of the Upslope is inhibited.

`Cc1cc2c(cc1-c1cnc(NC(=O)c3ccccc3F)s1)OC(F)(F)O2` [Example 84] was tested, and the IC50 [1] was < 600 nM, the IC50 [2] was < 50 nM and the IC50 (RBL-2H3 cells; Rattus norvegicus) was < 600 nM.

With `Cn1nc(-c2ccccc2F)cc1-c1ccc(C(=O)Nc2ccccc2Cl)s1` [Example 41] the IC50 [1] was < 600 nM, the IC50 [2] was > 100 nM and the IC50 (RBL-2H3 cells; Rattus norvegicus) was < 600 nM.

`Cc1cc2scnc2cc1-c1ccc(C(=O)Nc2ccccc2F)s1` [Example 5, N-(2-fluorophenyl)[5-(6-methylbenzothiazol-5-yl)(2-thienyl)]carboxamide] was tested, and the IC50 [1] was < 600 nM, the IC50 [2] was < 50 nM and the IC50 (RBL-2H3 cells; Rattus norvegicus) was < 600 nM.

In the case of `Cn1nc(-c2ccccc2F)cc1-c1ccc(C(=O)Nc2c(F)cccc2F)s1` [Example 35, N-(2,6-difluorophenyl){5-[3-(2-fluorophenyl)-1-methylpyrazol-5-yl](2-thienyl)}carboxamide], the IC50 [1] is reported as < 600 nM, the IC50 [2] is reported as < 50 nM and the IC50 (RBL-2H3 cells; Rattus norvegicus) is reported as < 600 nM.

With `Cn1nc(C(F)(F)F)cc1-c1ccc(NC(=O)c2c(F)cccc2F)s1` [Example 74, (2,6-difluorophenyl)-N-{5-[1-methyl-3-(trifluoromethyl)pyrazol-5-yl](2-thienyl)}carboxamide] the IC50 [1] was < 600 nM, the IC50 [2] was < 50 nM and the IC50 (RBL-2H3 cells; Rattus norvegicus) was < 600 nM.

`O=C(Nc1ccccc1F)c1ccc(-c2cc3scnc3cc2Cl)s1` [Example 9, [5-(5-chlorobenzothiazol-6-yl)(2-thienyl)]-N-(2-fluorophenyl)carboxamide] was tested, and the IC50 [1] was < 600 nM, the IC50 [2] was < 50 nM and the IC50 (RBL-2H3 cells; Rattus norvegicus) was < 600 nM.

For `Cc1nc2cc(Cl)c(-c3cnc(NC(=O)c4ccccc4Cl)s3)cc2o1` [Example 19, N-[5-(5-chloro-2-methybenzoxazol-6-yl)(1,3-thiazol-2-yl)](2-chlorophenyl)carboxamide], the IC50 [1] was < 600 nM, the IC50 [2] was 50 to 100 nM and the IC50 (RBL-2H3 cells; Rattus norvegicus) was < 600 nM.

With `Cn1nc(C(F)(F)F)cc1-c1cnc(NC(=O)c2c(F)cccc2F)s1` [Example 28, (2,6-difluorophenyl)-N-{5-[1-methyl-3-(trifluoromethyl)pyrazol-5-yl](1,3-thiazol-2-yl)}carboxamide] the IC50 [1] was < 600 nM, the IC50 [2] was < 50 nM and the IC50 (RBL-2H3 cells; Rattus norvegicus) was < 600 nM.

In the case of `Cc1cc2scnc2cc1-c1cnc(NC(=O)c2c(F)cccc2F)s1` [Example 20], the IC50 [1] is reported as 600 to 1200 nM, the IC50 [2] is reported as < 50 nM and the IC50 (RBL-2H3 cells; Rattus norvegicus) is reported as < 600 nM.

In the case of `Cc1cc2cn(C)nc2cc1-c1ccc(C(=O)Nc2ccccc2F)s1` [Example 13], the IC50 [1] is reported as < 600 nM, the IC50 [2] is reported as < 50 nM and the IC50 (RBL-2H3 cells; Rattus norvegicus) is reported as < 600 nM.

In the case of `Cc1cc2c(cc1-c1cnc(NC(=O)c3ccncc3F)s1)OC(F)(F)O2` [Example 82], the IC50 [1] is reported as < 600 nM, the IC50 [2] is reported as < 50 nM and the IC50 (RBL-2H3 cells; Rattus norvegicus) is reported as < 600 nM.

For `Cn1nc(-c2ccco2)cc1-c1ccc(C(=O)Nc2c(F)cccc2F)s1` [Example 56, N-(2,6-difluorophenyl)[5-(3-(2-furyl)-1-methylpyrazol-5-yl](2-thienyl)]carboxamide], the IC50 [1] was < 600 nM, the IC50 [2] was < 50 nM and the IC50 (RBL-2H3 cells; Rattus norvegicus) was < 600 nM.

In the case of `Cc1cc2scnc2cc1-c1ccc(C(=O)Nc2c(F)cccc2F)s1` [Example 4, N-(2,6-difluorophenyl)[5-(6-methylbenzothiazol-5-yl)(2-thienyl)]carboxamide], the IC50 [1] is reported as < 600 nM, the IC50 [2] is reported as < 50 nM and the IC50 (RBL-2H3 cells; Rattus norvegicus) is reported as < 600 nM.

`Cn1nc(-c2nccs2)cc1-c1ccc(C(=O)Nc2ccccc2Cl)s1` [Example 55] was tested, and the IC50 [1] was < 600 nM, the IC50 [2] was < 50 nM and the IC50 (RBL-2H3 cells; Rattus norvegicus) was < 600 nM.

With `Cn1nc(-c2ccccc2)cc1-c1ccc(C(=O)Nc2ncc(Cl)cc2F)s1` [Example 46] the IC50 [1] was < 600 nM, the IC50 [2] was < 50 nM and the IC50 (RBL-2H3 cells; Rattus norvegicus) was < 600 nM.

“(2,6-difluorophenyl-N-{5-[2-(fluorophenyl)-1-methylpyrazol-5-yl](1,3-thiazol-2-yl)]carboxamide [Example 69]” was tested, and the IC50 [1] was 600 to 1200 nM and the IC50 (RBL-2H3 cells) was < 600 nM.

With `Cc1cc2cnn(C)c2cc1-c1ccc(C(=O)Nc2ccccc2F)s1` [Example 12] the IC50 [1] was 600 to 1200 nM and the IC50 (RBL-2H3 cells; Rattus norvegicus) was < 600 nM.

`Cc1cc2c(cc1-c1ccc(NC(=O)c3c(F)cccc3F)s1)OC(F)(F)O2` [Example 80, N-[5-(2,2-difluoro-6-methylbenzo[d]1,3-dioxolen-5-yl)(2-thienyl)](2,6-difluorophenyl)carboxamide] was tested, and the IC50 [1] was > 1200 nM and the IC50 (RBL-2H3 cells; Rattus norvegicus) was < 600 nM.

In the case of `Cc1cc2c(C)noc2cc1-c1ccc(C(=O)Nc2ccccc2F)s1` [Example 11, [5-(3,5-dimethylbenzo[d]isoxazol-6-yl)(2-thienyl)]-N-(2-fluorophenyl)carboxamide], the IC50 [1] is reported as < 600 nM, the IC50 [2] is reported as < 50 nM and the IC50 (RBL-2H3 cells; Rattus norvegicus) is reported as < 600 nM.

`O=C(Nc1ccccc1Cl)c1ccc(-c2cc3scnc3cc2Cl)s1` [Example 8, N-(2-chlorophenyl)[5-(5-chlorobenzothiazol-6-yl)(2-thienyl)]carboxamide] was tested, and the IC50 [1] was 600 to 1200 nM and the IC50 (RBL-2H3 cells; Rattus norvegicus) was < 600 nM.

In the case of `Cn1nc(-c2ccccc2)cc1-c1ccc(C(=O)Nc2c(F)cccc2F)s1` [Example 42, N-(2,6-difluorophenyl)[5-(1-methyl-3-phenylpyrazol-5-yl](2-thienyl)}carboxamide], the IC50 [1] is reported as < 600 nM, the IC50 [2] is reported as < 50 nM and the IC50 (RBL-2H3 cells; Rattus norvegicus) is reported as < 600 nM.

In the case of `Cc1nc2cc(Cl)c(-c3ccc(C(=O)Nc4c(F)cccc4F)s3)cc2o1` [Example 3, [5-(5-chloro-2-methylbenzoxazol-6-yl)(2-thienyl)]-N-(2,6-difluorophenyl)carboxamide], the IC50 [1] is reported as < 600 nM, the IC50 [2] is reported as < 50 nM and the IC50 (RBL-2H3 cells; Rattus norvegicus) is reported as < 600 nM.

In the case of `Cn1c(-c2cnc(NC(=O)c3ccccc3Cl)s2)cc2ccccc21` [Example 22, (2-chlorophenyl)-N-[5-(1-methylindol-2-yl)(1,3-thiazol-2-yl)]carboxamide], the IC50 [1] is reported as > 1200 nM and the IC50 (RBL-2H3 cells; Rattus norvegicus) is reported as < 600 nM.

For `Cn1nc(C(F)(F)F)cc1-c1ccc(NC(=O)c2ccccc2F)s1` [Example 71, (2-fluorophenyl)-N-{5-[1-methyl-3-(trifluoromethyl)pyrazol-5-yl](2-thienyl)}carboxamide], the IC50 [1] was < 600 nM and the IC50 (RBL-2H3 cells; Rattus norvegicus) was < 600 nM.

For `Cn1nc(-c2ccccc2)cc1-c1ccc(C(=O)Nc2ncccc2F)s1` [Example 45], the IC50 [1] was 600 to 1200 nM and the IC50 (RBL-2H3 cells; Rattus norvegicus) was 600 to 1200 nM.

For `Cn1nc(C(F)(F)F)cc1-c1cnc(NC(=O)c2ccncc2F)s1` [Example 76], the IC50 [1] was < 600 nM and the IC50 (RBL-2H3 cells; Rattus norvegicus) was < 600 nM.

For `Cc1cc2c(cc1-c1ccc(NC(=O)c3ccccc3F)s1)OC(F)(F)O2` [Example 79, N-[5-(2,2-difluoro-6-methylbenzo[d]1,3-dioxolen-5-yl)(2-thienyl)](2-fluorophenyl)carboxamide], the IC50 [1] was > 1200 nM and the IC50 (RBL-2H3 cells; Rattus norvegicus) was 600 to 1200 nM.

For `Cn1nc(-c2nccs2)cc1-c1ccc(C(=O)Nc2c(F)cccc2F)s1` [Example 49, (2,6-difluorophenyl)[5-(1-methyl-3-(1,3-thiazol-2-yl)pyrazol-5-yl](2-thienyl)]carboxamide], the IC50 [1] was < 600 nM and the IC50 (RBL-2H3 cells; Rattus norvegicus) was < 600 nM.

For `Cn1nc(-c2nccs2)cc1-c1ccc(C(=O)Nc2c(F)cncc2F)s1` [Example 50], the IC50 [1] was 600 to 1200 nM and the IC50 (RBL-2H3 cells; Rattus norvegicus) was < 600 nM.
